Data from patent US20250320213A1, “Nitrogen-Containing Heterocyclic Compounds” (Pfizer Inc., priority 2024, published 2025).

Legend:
[1] = tested on: CCL17 secretion in peripheral human whole blood; assay: Human Whole Blood (HWB) CCL17 TR-FRET Assay (IL-13 stimulated CCL17 secretion); assay type: cell-based; conditions: Homo sapiens, 48 h, human whole blood, 10 ng/mL IL13, 48 hours
Method in brief: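 Measured here: CCL17 in serum by TR-FRET (665/615 nm) after overnight (16 h) room-temperature detection. The blood, heparinized and compound-treated for 2 h, received IL-13 at 10 ng/mL final and was cultured 48 h at 37 °C.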

STAT6 = biological target: T1, STAT6 (Homo sapiens, UniProt P42226); assay: STAT6 Reporter Luciferase Assay (IL-13 stimulated HaCaT keratinocyte NanoLuc reporter cells); assay type: cell-based; conditions: IL-13 stimulated HaCaT STAT6 NanoLuc reporter cells; read-out: Reporter EC50
T1 construct: stably transfected HaCaT keratinocyte cell line, which expresses NanoLuc luciferase reporter gene under the transcriptional control of the STAT6 responsive promoter; endogenous in cells; host or cells: HaCaT keratinocyte reporter cell line (stably transfected with a NanoLuc reporter)
T1 sequence (P42226 1-847): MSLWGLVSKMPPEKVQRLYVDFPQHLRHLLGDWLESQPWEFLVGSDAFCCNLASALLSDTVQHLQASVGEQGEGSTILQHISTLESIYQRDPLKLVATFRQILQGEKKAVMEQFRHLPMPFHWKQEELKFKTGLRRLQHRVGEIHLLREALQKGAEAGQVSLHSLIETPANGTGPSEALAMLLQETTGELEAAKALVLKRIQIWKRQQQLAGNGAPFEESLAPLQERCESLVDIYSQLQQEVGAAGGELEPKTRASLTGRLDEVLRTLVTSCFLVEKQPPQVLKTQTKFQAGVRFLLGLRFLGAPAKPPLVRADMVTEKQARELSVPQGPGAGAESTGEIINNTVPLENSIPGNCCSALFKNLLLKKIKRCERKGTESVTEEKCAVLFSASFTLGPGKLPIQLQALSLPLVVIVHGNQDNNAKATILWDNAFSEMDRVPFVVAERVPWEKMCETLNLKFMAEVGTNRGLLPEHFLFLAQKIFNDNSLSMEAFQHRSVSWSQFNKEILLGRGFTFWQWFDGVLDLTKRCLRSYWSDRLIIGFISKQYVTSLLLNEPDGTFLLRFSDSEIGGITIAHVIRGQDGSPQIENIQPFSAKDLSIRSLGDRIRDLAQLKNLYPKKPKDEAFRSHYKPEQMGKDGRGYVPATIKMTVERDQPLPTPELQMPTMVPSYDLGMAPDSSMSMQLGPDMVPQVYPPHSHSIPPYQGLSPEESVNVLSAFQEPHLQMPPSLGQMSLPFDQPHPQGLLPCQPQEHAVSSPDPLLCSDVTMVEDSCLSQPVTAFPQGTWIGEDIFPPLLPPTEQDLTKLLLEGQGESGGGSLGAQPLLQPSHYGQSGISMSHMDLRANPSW
Method in brief: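 Stably transfected HaCaT cells carrying NanoLuc under the STAT6-responsive IL-13Ra2 promoter were pre-treated with compound (11-point, 4-fold series, duplicate) for 2 h at 37 °C, then stimulated with 0.12 nM IL-13 for 4 h. Nano-Glo luminescence was read after 15 min.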

IC50 [1] | EC50 (STAT6) | SMILES
7 nM | 0.4 nM | CC(C)n1nc(C(=O)NCc2ccc(NC(=O)N3CCN(C)CC3)cc2)c2c1[C@@H](C)CN(c1ccc(C(=O)N3Cc4cccnc4C3)cc1)C2 [Example 614, (S)-5-(4-(6,7-dihydro-5H-pyrrolo[3,4-b]pyridine-6-carbonyl)phenyl)-1-isopropyl-7-methyl-N-(4-(4-methylpiperazine-1-carboxamido)benzyl)-4,5,6,7-tetrahydro-1H-pyrazolo[4,3-c]pyridine-3-carboxamide]
13 nM | 2 nM | CC(C)n1nc(C(=O)NCc2ccc(NC(=O)N3CCCN(C)CC3)cc2)c2c1[C@@H](C)CN(c1ccc(C(=O)N(C)C)cn1)C2 [Example 615, (S)-5-(5-(dimethylcarbamoyl)pyridin-2-yl)-1-isopropyl-7-methyl-N-(4-(4-methyl-1,4-diazepane-1-carboxamido)benzyl)-4,5,6,7-tetrahydro-1H-pyrazolo[4,3-c]pyridine-3-carboxamide]
6 nM | 1 nM | CC(C)n1nc(C(=O)NCc2ccc(NC(=O)N3CCC(N(C)C)CC3)cc2)c2c1[C@@H](C)CN(c1ccc(C(=O)N(C)C)cn1)C2 [Example 616, (S)-N-(4-(4-(dimethylamino)piperidine-1-carboxamido)benzyl)-5-(5-(dimethylcarbamoyl)pyridin-2-yl)-1-isopropyl-7-methyl-4,5,6,7-tetrahydro-1H-pyrazolo[4,3-c]pyridine-3-carboxamide]
502 nM | 178 nM | CC(C)n1nc(C(=O)NCc2ccc(C(=O)NCC3CCN(C)CC3)cc2)c2c1[C@@H](C)CN(c1ccc(C(=O)N(C)C)cc1)C2 [Example 617, (S)-5-(4-(dimethylcarbamoyl)phenyl)-1-isopropyl-7-methyl-N-(4-(((1-methylpiperidin-4-yl)methyl)carbamoyl)benzyl)-4,5,6,7-tetrahydro-1H-pyrazolo[4,3-c]pyridine-3-carboxamide]
612 nM | 127 nM | CC(C)n1nc(C(=O)NCc2ccc(C(=O)NCC3CCN(C)CC3)cc2)c2c1[C@@H](C)CN(c1ccc(C(=O)N(C)C)cn1)C2 [Example 618, (S)-5-(5-(dimethylcarbamoyl)pyridin-2-yl)-1-isopropyl-7-methyl-N-(4-(((1-methylpiperidin-4-yl)methyl)carbamoyl)benzyl)-4,5,6,7-tetrahydro-1H-pyrazolo[4,3-c]pyridine-3-carboxamide]
19 nM | 3 nM | CNC1CN(C(=O)Nc2ccc(CNC(=O)c3nn(C(C)C)c4c3CN(c3ccc(C(=O)N(C)C)cc3)C[C@@H]4C)cc2)C1 [Example 619, (S)-5-(4-(dimethylcarbamoyl)phenyl)-1-isopropyl-7-methyl-N-(4-(3-(methylamino)azetidine-1-carboxamido)benzyl)-4,5,6,7-tetrahydro-1H-pyrazolo[4,3-c]pyridine-3-carboxamide]
8 nM | 1 nM | CC(C)n1nc(C(=O)NCc2ccc(NC(=O)N3CCC(C4CCNCC4)CC3)cc2)c2c1[C@@H](C)CN(c1ccc(C(=O)N(C)C)cc1)C2 [Example 620, (S)-N-(4-([4,4′-bipiperidine]-1-carboxamido)benzyl)-5-(4-(dimethylcarbamoyl)phenyl)-1-isopropyl-7-methyl-4,5,6,7-tetrahydro-1H-pyrazolo[4,3-c]pyridine-3-carboxamide]
31 nM | 7 nM | CC(C)n1nc(C(=O)NCc2ccc(NC(=O)N3CC4(CCN4)C3)cc2)c2c1[C@@H](C)CN(c1ccc(C(=O)N(C)C)cc1)C2 [Example 621, (S)-N-(4-(1,6-diazaspiro[3.3]heptane-6-carboxamido)benzyl)-5-(4-(dimethylcarbamoyl)phenyl)-1-isopropyl-7-methyl-4,5,6,7-tetrahydro-1H-pyrazolo[4,3-c]pyridine-3-carboxamide]
16 nM | 4 nM | CC(C)n1nc(C(=O)NCc2ccc(NC(=O)N3CCC4(CCCNC4)CC3)cc2)c2c1[C@@H](C)CN(c1ccc(C(=O)N(C)C)cc1)C2 [Example 622, (S)-N-(4-((5-(4-(dimethylcarbamoyl)phenyl)-1-isopropyl-7-methyl-4,5,6,7-tetrahydro-1H-pyrazolo[4,3-c]pyridine-3-carboxamido)methyl)phenyl)-2,9-diazaspiro[5.5]undecane-9-carboxamide]
37 nM | 13 nM | CC(C)n1nc(C(=O)NCc2ccc(NC(=O)N3CCC4(CC3)CNC4)cc2)c2c1[C@@H](C)CN(c1ccc(C(=O)N(C)C)cc1)C2 [Example 623, (S)-N-(4-(2,7-diazaspiro[3.5]nonane-7-carboxamido)benzyl)-5-(4-(dimethylcarbamoyl)phenyl)-1-isopropyl-7-methyl-4,5,6,7-tetrahydro-1H-pyrazolo[4,3-c]pyridine-3-carboxamide]
18 nM | 1 nM | CC(C)n1nc(C(=O)NCc2ccc(NC(=O)N3CCC(CC4CCNCC4)CC3)cc2)c2c1[C@@H](C)CN(c1ccc(C(=O)N(C)C)cc1)C2 [Example 624, (S)-5-(4-(dimethylcarbamoyl)phenyl)-1-isopropyl-7-methyl-N-(4-(4-(piperidin-4-ylmethyl)piperidine-1-carboxamido)benzyl)-4,5,6,7-tetrahydro-1H-pyrazolo[4,3-c]pyridine-3-carboxamide]
24 nM | 10 nM | CC(C)n1nc(C(=O)NCc2ccc(NC(=O)N3CCC4(CCNCC4)CC3)cc2)c2c1[C@@H](C)CN(c1ccc(C(=O)N(C)C)cc1)C2 [Example 625, (S)-N-(4-((5-(4-(dimethylcarbamoyl)phenyl)-1-isopropyl-7-methyl-4,5,6,7-tetrahydro-1H-pyrazolo[4,3-c]pyridine-3-carboxamido)methyl)phenyl)-3,9-diazaspiro[5.5]undecane-3-carboxamide]
88 nM | 38 nM | CC(C)n1nc(C(=O)NCc2ccc(NC(=O)N3CC4(CCNCC4)C3)cc2)c2c1[C@@H](C)CN(c1ccc(C(=O)N(C)C)cc1)C2 [Example 626, (S)-N-(4-(2,7-diazaspiro[3.5]nonane-2-carboxamido)benzyl)-5-(4-(dimethylcarbamoyl)phenyl)-1-isopropyl-7-methyl-4,5,6,7-tetrahydro-1H-pyrazolo[4,3-c]pyridine-3-carboxamide]
23 nM | 7 nM | CC(C)n1nc(C(=O)NCc2ccc(NC(=O)N3CC(N)C3)cc2)c2c1[C@@H](C)CN(c1ccc(C(=O)N(C)C)cc1)C2 [Example 627, (S)-N-(4-(3-aminoazetidine-1-carboxamido)benzyl)-5-(4-(dimethylcarbamoyl)phenyl)-1-isopropyl-7-methyl-4,5,6,7-tetrahydro-1H-pyrazolo[4,3-c]pyridine-3-carboxamide]
4 nM | 1 nM | CC(C)n1nc(C(=O)NCc2ccc(NC(=O)N3CCC4(CC3)CNCCO4)cc2)c2c1[C@@H](C)CN(c1ccc(C(=O)N(C)C)cc1)C2 [Example 628, (S)-N-(4-((5-(4-(dimethylcarbamoyl)phenyl)-1-isopropyl-7-methyl-4,5,6,7-tetrahydro-1H-pyrazolo[4,3-c]pyridine-3-carboxamido)methyl)phenyl)-1-oxa-4,9-diazaspiro[5.5]undecane-9-carboxamide]
390 nM | 121 nM | CC(C)n1nc(C(=O)NCc2ccc(NC(=O)N(C)C)cc2)c2c1[C@@H](C)CN(c1ccc(C(=O)N(C)CC3CN(C)C3)cc1)C2 [Example 629, (S)-N-(4-(3,3-dimethylureido)benzyl)-1-isopropyl-7-methyl-5-(4-(methyl((1-methylazetidin-3-yl)methyl)carbamoyl)phenyl)-4,5,6,7-tetrahydro-1H-pyrazolo[4,3-c]pyridine-3-carboxamide]
55 nM | 9 nM | CC(C)n1nc(C(=O)NCc2ccc(NC(=O)N3CCNCC3)cc2Cl)c2c1[C@@H](C)CN(c1ccc(C(=O)N(C)C)cc1)C2 [Example 630, (S)-N-(2-chloro-4-(piperazine-1-carboxamido)benzyl)-5-(4-(dimethylcarbamoyl)phenyl)-1-isopropyl-7-methyl-4,5,6,7-tetrahydro-1H-pyrazolo[4,3-c]pyridine-3-carboxamide]
